Assay results from patent publication US20030162834A1, “Natural physiologically active material effective on fish diseases and fish food containing the material” (priority 1998, published 2003).

Tests used:
[1] = Growth trial: tiger puffer fed basal diet supplemented with 0.5% octanoic acid; assay type: in vivo
Description: The inventors conducted trials using tiger puffer to test whether the octanoic acid adversely affects growth of fish. Two trial groups were prepared; i.e., one group fed the basal diet supplemented with 0.5% of octanoic acid (5 g of octanoic acid added for 1 kg of diet), and the other group fed the basal diet alone. Trial conditions were that 50 pieces of tiger puffer for each group were put in a 1-t water tank, and the puffs were fed twice per day, i.e., in the morning and evening. A bleeding trial period was 45 days and the water temperature was 25+−1 degrees centigrade during the trial period.

[2] = system: Heterobothrium okamotoi larvae; test: Immersion of Heterobothrium okamotoi larvae in seawater with dissolved octanoic acid; assay type: cell-based; details: seawater in which octanoic acid was dissolved
Description: Larvae of parasites Heterobothrium okamotoi were immersed in seawater in which octanoic acid was dissolved. […] Octanoic acid is an edible natural material contained in palm oil, butter and nuts, and has been used in a drug applied to dyspeptics, for example.

[3] = system: parasites (Heterobothrium okamotoi, Cryptocaryon irritans); test: Trial 1: overall statements on efficacy of fatty acids against parasites; assay type: cell-based; details: Trial 1 summary; C12 at a low concentration, not the same condition
Description: Fatty acids having carbon number C2, C4 and C6-C10 were each dissolved in seawater at 1 mM concentration, and oncomiracidia of Heterobothrium okamotoi and larvae attaching to the gill were immersed in the seawater solutions. After 2 hours from the start of immersion, the efficacy of the fatty acids was investigated by counting the number of dead oncomiracidia and the number of larvae dropping down from the gill. More than 30 individuals of parasites were transferred to each group.
For Cryptocaryon irritans, fatty acids having carbon number C2, C4 and C6-C10 were each dissolved in seawater at 0.5 mM concentration, and theronts of Cryptocaryon irritans were immersed in the seawater solutions. After 1 hour from the start of immersion, the efficacy of the fatty acids was investigated by counting the number of dead theronts. More than 200 individuals of parasites were transferred to each group.
For any of the groups, the trial was made under condition of 20 degrees centigrade.

[4] = system: Benedenia seriolae adults; test: Trial 2: in vitro immersion in octanoic acid seawater; assay type: cell-based; details: 800 PPM octanoic acid added to seawater, 20 degrees centigrade
Description: (§1) 800 PPM of octanoic acid was added to seawater and dissolved therein maximally. In this seawater solution, Bivagina tai larvae sampled from the gill of red sea bream, Heteraxine heterocerca larvae sampled from the gill of young yellowtail, Benedenia seriolae adults sampled from the body surface of young yellowtail, Kudoa shiomitsui spores sampled from the heart of tiger puffer, and Pseudocaligus fugu adults sampled from the body surface of tiger puffer were immersed under condition of 20 degrees centigrade, followed by observation. As control, another group was managed using seawater alone. More than 30 individuals of parasites were transferred to each group.

Bivagina tai larvae = test: as above; assay type: cell-based; details: 800 PPM octanoic acid added to seawater, 20 degrees centigrade
Description: as §1

[5] = system: Heteraxine heterocerca larvae; test: as above; assay type: cell-based; details: 800 PPM octanoic acid added to seawater, 20 degrees centigrade
Description: as §1

Kudoa shiomitsui spores = test: as above; assay type: cell-based; details: 800 PPM octanoic acid added to seawater, 20 degrees centigrade
Description: as §1

[6] = system: Pseudocaligus fugu adults; test: as above; assay type: cell-based; details: 800 PPM octanoic acid added to seawater, 20 degrees centigrade
Description: as §1

Cryptocaryon irritans [7] = test: Trial 4: oral octanoic acid, Cryptocaryon irritans challenge trial on red sea bream; assay type: in vivo; details: 5 g octanoic acid per 1 kg pellets
Description: Fish tested: Red sea bream weighing approximately 9.8 g in average.
Trial groups: Two groups, i.e., an octanoic-acid added group in which fish were fed diets added with octanoic acid, and a control group in which fish were fed diets not added with octanoic acid. The feeding rate was 3% of fish weight/day for each group.
Trial diets: The diets added with octanoic acid were prepared by spraying 5 g of octanoic acid to 1 kg of commercially available pellets for red sea bream. The control group fish were fed the commercially available pellets for red sea bream.
Challenge trial: Each 30 pieces of fish from among a shoal of fish, in which no diseases such as Cryptocaryon irritans infection were found, were put in a 100-liter water tank, and were fed the respective trial diets. After 5 days, approximately 2000 individuals of ([…] theronts) of Cryptocaryon irritans were put in each water tank to infect the fish while water flow was stopped for 1 hour. Then, bleeding was continued for 15 days. During the trial period, the water temperature was in the range of 22.5-23.2 degrees centigrade and the water was exchanged at 20 cycles/day.
Evaluation was made by sampling 5 pieces of fish from each group after 3 days from the start of the challenge, comparing the number of parasites attaching to the gill and the body surface of each infected fish, and comparing mortality of the fish during the trial period between the respective groups.

[8] = Trial 9: tolerance of tiger puffer to immersion in seawater containing octanoic acid; assay type: in vivo
Description: Each group, i.e., 130 g of tiger puffer, was immersed in 2-liter seawater containing octanoic acid at 100 ppm, 200 ppm and 400 ppm, followed by observation.

Cryptocaryon irritans [9] = test: Trial 10: immersion of infected tiger puffer in seawater containing octanoic acid; assay type: in vivo; details: 200 ppm for 2 minutes, 3 hours after return to seawater
Description: 300 g of tiger puffer infected with Cryptocaryon irritans was immersed in seawater containing 200 ppm of octanoic acid for 2 minutes, and then returned to seawater again. After 3 hours from return to seawater, the parasites Cryptocaryon irritans and their situations and numbers were observed.

CCCCCCCC(=O)O [octanoic acid]
died fish ([1]; continued for succeeding seven months): no died fish | adverse effects on puffer growth ([1]; in vivo): adverse effects on the puffer growth were not found | content of octanoic acid in the edible muscle ([1]; in vivo): no octanoic acid was detected | effect on larvae [2]: died due to the occurrence of structural damages (such as vacuolation) | efficacy against parasites [3]: most effective | contraction of parasites [4]: became contracted apparently | time until contraction occurred [4]: approximately 10 minutes | contraction of parasites (Bivagina tai larvae): became contracted apparently | time until contraction occurred (Bivagina tai larvae): approximately 10 minutes | contraction of parasites [5]: became contracted apparently | time until contraction occurred [5]: approximately 10 minutes | time until burst image of the spores was observed (Kudoa shiomitsui spores): approximately 1 hour | contraction of parasites [6]: no contraction | time until reduction in swimming activity was found [6]: approximately 1 hour | parasites on gill and body surface after 3 days from the challenge (Cryptocaryon irritans [7]): no parasites were found | parasites at the end of the trial (Cryptocaryon irritans [7]; 15 days): no parasites were found | fish mortality during the trial (Cryptocaryon irritans [7]; 15 days, control all dead at the 8-th day): no fish died | condition when returned to seawater ([8]; after immersion at 100 ppm): no abnormality | time to restore to a normal condition after return to seawater ([8]; after immersion at 200 ppm): approximately 30 minutes | time to restore to a normal condition after return to seawater ([8]; after immersion at 400 ppm, almost dying condition): approximately 60 minutes | observation of fish after 60 minutes ([8]; immersion, 100 ppm octanoic acid in seawater): a swimming activity of the fish was slightly lowered, but no abnormality was found in the fish | time at which fish began to lie down ([8]; immersion, 200 ppm): 60 min | time until swimming activity was apparently lowered ([8]; immersion, 200 ppm): 30 min | time at which fish became almost dying ([8]; immersion, 400 ppm): 9 min | time at which fish began to lie down ([8]; immersion, 400 ppm): 3 min | observation of fish returned to seawater ([8]; observed for 7 days after immersion): no abnormality was found | number of parasites attaching to the body surface (Cryptocaryon irritans [9]; before treatment 193/2 cm^2): 261 /2 cm^2 | number of parasites attaching to the gill (Cryptocaryon irritans [9]; before treatment 624): 356 per branchial arch | body-surface parasites that showed movement and seemed still alive (Cryptocaryon irritans [9]; of 261): 9 | gill parasites that showed movement and seemed still alive (Cryptocaryon irritans [9]; of 356): 193
